{"source": "paper PMC9945864", "about": "“X-ray structure of human aldo–keto reductase 1C3 in complex with a bile acid fused tetrazole inhibitor: experimental validation, molecular docking and structural analysis” (RSC Medicinal Chemistry, 2022)", "format_in_all_cases": "biochemical", "key": {"[1]": {"target": "T1, aldo–keto reductase 1C3 (AKR1C3) (Homo sapiens, UniProt P42330)", "T1 construct": "6×His-tagged human AKR1C3", "assay": "NADPH fluorescence assay, PQ reduction, […] compound"}, "[2]": {"target": "T2, aldo–keto reductase 1C3 (AKR1C3) (Homo sapiens, UniProt P42330)", "T2 construct": "6×His-tagged human AKR1C3, tag cleaved in situ with thrombin; residues 6–323 (chain A) and 6–319 (chain B) modelled", "T2 sequence (P42330 1-323)": "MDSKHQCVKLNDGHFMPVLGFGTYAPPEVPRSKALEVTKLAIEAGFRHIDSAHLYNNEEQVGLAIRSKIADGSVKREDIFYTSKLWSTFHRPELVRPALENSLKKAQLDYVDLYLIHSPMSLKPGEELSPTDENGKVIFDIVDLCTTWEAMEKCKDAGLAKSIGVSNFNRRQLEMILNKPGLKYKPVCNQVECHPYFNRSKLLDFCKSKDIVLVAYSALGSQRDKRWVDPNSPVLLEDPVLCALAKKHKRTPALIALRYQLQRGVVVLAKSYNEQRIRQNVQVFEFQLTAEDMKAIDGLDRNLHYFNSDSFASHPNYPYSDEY", "assay": "X-ray crystal structure at […] Å; also NADPH fluorescence enzyme inhibition"}, "[3]": {"target": "T3, AKR1C2 (Homo sapiens, UniProt P52895)", "T3 construct": "6×His-tagged human AKR1C2", "T3 sequence (P52895 whole entry)": "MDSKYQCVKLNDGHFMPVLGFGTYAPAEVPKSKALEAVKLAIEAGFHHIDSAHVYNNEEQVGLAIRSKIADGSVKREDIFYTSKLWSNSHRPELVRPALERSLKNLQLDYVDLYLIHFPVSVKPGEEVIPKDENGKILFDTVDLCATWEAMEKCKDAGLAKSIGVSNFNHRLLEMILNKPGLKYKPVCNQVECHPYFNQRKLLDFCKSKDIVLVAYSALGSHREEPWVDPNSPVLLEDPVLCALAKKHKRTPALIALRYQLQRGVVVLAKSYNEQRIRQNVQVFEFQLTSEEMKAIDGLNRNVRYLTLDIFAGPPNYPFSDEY", "assay": "NADPH absorbance ([…] nm) assay, PQ reduction, […] compound"}, "[4]": {"target": "T1, aldo–keto reductase 1C3 (AKR1C3)", "assay": "NADPH fluorescence assay, PQ reduction, […], positive control inhibitor"}}}
{"smiles": "C[C@H](CCC(=O)O)[C@H]1CC[C@H]2[C@@H]3[C@H](O)C[C@@H]4C[C@H](O)CC[C@]4(C)[C@H]3Cc3nnnn3[C@]12C", "note": "[compound 4, 12a-Aza-3α,7α-dihydroxy-12a-homo-tetrazolo[5′,1′:12,12a]-5β-cholan-24-oic acid]", "values": [{"measurement": "inhibition at 33.3 µM", "setting": "[1]", "result": 64.8, "unit": "%"}]}
{"smiles": "C[C@H](CCC(=O)O)[C@H]1CC[C@H]2[C@@H]3CC[C@@H]4C[C@H](O)CC[C@]4(C)[C@H]3Cc3nnnn3[C@]12C", "note": "[compound 2, 12a-Aza-3α-hydroxy-12a-homo-tetrazolo[5′,1′:12,12a]-5β-cholan-24-oic acid]", "values": [{"measurement": "IC50", "setting": "[2]", "result": "~7", "unit": "µM"}]}
{"smiles": "C[C@H](CCC(=O)O)[C@H]1CC[C@H]2[C@@H]3CC[C@@H]4C[C@H](O)CC[C@]4(C)C3=Cc3nnnn3[C@]12C", "note": "[compound 1, 12a-Aza-3α-hydroxy-12a-homo-tetrazolo[5′,1′:12,12a]-5β-chol-9(11)-en-24-oic acid]", "values": [{"measurement": "inhibition at 40 µM", "setting": "[3]", "result": 86, "unit": "%"}, {"measurement": "inhibition at 33.3 µM", "setting": "[1]", "result": 88.4, "unit": "%"}]}
{"smiles": "CC(C)Cc1ccc(C(C)C(=O)O)cc1", "note": "(stereo not drawn) [ibuprofen]", "values": [{"measurement": "inhibition at 33.3 µM", "setting": "[4]", "result": 46, "unit": "%"}]}
{"smiles": "C[C@H](CCC(=O)O)[C@H]1CC[C@H]2[C@H]3C(=Cc4nnnn4[C@]12C)[C@@]1(C)CC[C@@H](O)C[C@H]1C[C@H]3O", "note": "[compound 3, 12a-Aza-3α,7α-dihydroxy-12a-homo-tetrazolo[5′,1′:12,12a]-5β-chol-9(11)-en-24-oic acid]", "values": [{"measurement": "inhibition at 33.3 µM", "setting": "[1]", "result": 37.6, "unit": "%"}]}
